Columns and labels:
[1] = tested on: KMS-11; assay: Antiproliferative activity, CCK-8, KMS-11; assay type: cell-based; conditions: KMS-11, Human multiple myeloma; read-out: Cytotoxicity (IC50 μM)
Procedure: (§1) The tumor cells used were purchased from commercial cell banks (HCT116 purchased from ATCC, SKM 1 purchased from JCRB). The growth inhibition of cells was detected using the CCK-8 method. The specific steps were as follows. Cells in the logarithmic growth phase were seeded into a 96 well culture plate at an appropriate density, with 90 μL/well. After overnight cultivation, different concentrations of drugs were added for treatment for 72 h, with each concentration in triplicate, and corresponding concentration of vehicle control and cell-free blank wells were also set. After the treatment, 10 μL of CCK-8 was added to each well and the plate was incubated in an incubator for 2-4 hours, and the optical density (OD value) at a wavelength of 450 nm was measured using a SpectraMax 190 microplate reader. […] The experiment was repeated twice, and the mean value and SD were calculated.
(§2) The testing method for antiproliferative activity was the same as that mentioned in Pharmacological Experiment Example 2, and the results are shown in Table 4 and FIGS. 2-3.

[2] = tested on: OCI-AML3; assay: Antiproliferative activity, CCK-8, OCI-AML3; assay type: cell-based; conditions: OCI-AML3, Human acute myeloid leukemia; read-out: Cytotoxicity (IC50 μM)
Procedure: as §1, §2

[3] = tested on: REC-1; assay: Antiproliferative activity, CCK-8, REC-1; assay type: cell-based; conditions: REC-1, Human mantle cell lymphoma; read-out: Cytotoxicity (IC50 μM)
Procedure: as §1, §2

[4] = tested on: WILL-1; assay: Antiproliferative activity, CCK-8, WILL-1; assay type: cell-based; conditions: WILL-1, Diffuse large B-cell lymphoma; read-out: Cytotoxicity (IC50 μM)
Procedure: as §1, §2

[5] = tested on: CAKI-1; assay: Antiproliferative activity, CCK-8, CAKI-1; assay type: cell-based; conditions: CAKI-1, Renal cell carcinoma; read-out: Cytotoxicity (IC50 μM)
Procedure: as §1, §2

[6] = tested on: MV-4-11; assay: Antiproliferative activity, CCK-8, MV-4-11; assay type: cell-based; conditions: MV-4-11, Acute monocyte/Monocyte leukemia; read-out: Cytotoxicity (IC50 μM)
Procedure: as §1, §2

[7] = tested on: MOLP-8; assay: Antiproliferative activity, CCK-8, MOLP-8; assay type: cell-based; conditions: MOLP-8, Human multiple myeloma; read-out: Cytotoxicity (IC50 μM)
Procedure: as §1, §2

[8] = tested on: HCT-116 cells; assay: Antiproliferative activity, CCK-8, HCT-116; assay type: cell-based, human; conditions: 72 h
Procedure: as §1

[9] = tested on: OCI-LY-10; assay: Antiproliferative activity, CCK-8, OCI-LY-10; assay type: cell-based; conditions: OCI-LY-10, Diffuse large B-cell lymphoma; read-out: Cytotoxicity (IC50 μM)
Procedure: as §1, §2

[10] = tested on: KG-1; assay: Antiproliferative activity, CCK-8, KG-1; assay type: cell-based; conditions: KG-1, Acute myeloid leukemia; read-out: Cytotoxicity (IC50 μM)
Procedure: as §1, §2

[11] = molecular target: HDAC6 (Homo sapiens (Human), UniProt Q9UBN7); assay: In vitro histone deacetylase activity assay (HTRF), HDAC6; assay type: biochemical; conditions: H3(1-21) K9Ac biotin substrate
Sequence of HDAC6 (Q9UBN7 whole entry): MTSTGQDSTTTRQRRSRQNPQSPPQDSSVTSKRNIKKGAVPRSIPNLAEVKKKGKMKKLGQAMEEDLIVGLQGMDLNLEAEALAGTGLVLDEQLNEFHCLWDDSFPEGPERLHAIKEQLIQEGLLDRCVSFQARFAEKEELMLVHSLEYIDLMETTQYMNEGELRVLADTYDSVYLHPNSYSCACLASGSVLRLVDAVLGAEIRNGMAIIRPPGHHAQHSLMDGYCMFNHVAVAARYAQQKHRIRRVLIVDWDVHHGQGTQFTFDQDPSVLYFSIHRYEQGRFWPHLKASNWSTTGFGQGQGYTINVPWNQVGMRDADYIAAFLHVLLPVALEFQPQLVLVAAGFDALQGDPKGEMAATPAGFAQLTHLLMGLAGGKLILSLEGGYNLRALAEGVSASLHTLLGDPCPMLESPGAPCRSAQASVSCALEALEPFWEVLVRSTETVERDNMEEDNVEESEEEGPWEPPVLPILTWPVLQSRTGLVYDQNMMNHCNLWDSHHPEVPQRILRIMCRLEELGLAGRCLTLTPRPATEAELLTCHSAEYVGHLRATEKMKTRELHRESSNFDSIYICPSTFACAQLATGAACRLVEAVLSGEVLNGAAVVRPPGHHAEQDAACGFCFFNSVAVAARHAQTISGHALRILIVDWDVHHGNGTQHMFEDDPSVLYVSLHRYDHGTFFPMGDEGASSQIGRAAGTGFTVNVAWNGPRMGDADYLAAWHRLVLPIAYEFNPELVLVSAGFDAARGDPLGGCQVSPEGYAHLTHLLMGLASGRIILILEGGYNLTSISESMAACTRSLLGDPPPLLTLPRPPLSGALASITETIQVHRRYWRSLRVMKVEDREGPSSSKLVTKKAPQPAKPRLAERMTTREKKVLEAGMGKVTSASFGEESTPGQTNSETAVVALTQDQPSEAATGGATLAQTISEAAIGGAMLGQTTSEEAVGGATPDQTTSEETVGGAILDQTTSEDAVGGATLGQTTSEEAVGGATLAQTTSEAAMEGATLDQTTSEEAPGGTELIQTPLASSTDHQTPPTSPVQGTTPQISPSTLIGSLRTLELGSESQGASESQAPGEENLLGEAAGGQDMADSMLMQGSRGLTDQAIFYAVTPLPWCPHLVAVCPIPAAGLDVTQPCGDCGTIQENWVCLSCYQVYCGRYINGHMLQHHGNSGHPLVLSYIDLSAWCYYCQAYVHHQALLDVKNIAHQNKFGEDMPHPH
Procedure: (§3) Human recombinant HDAC family proteins with His and GST tags were expressed using insect baculovirus expression system, and a biologically active HDAC family recombinant protein was obtained through Ni affinity column protein purification. HTRF detection method was used with H3(1-21) K9Ac biotin as the substrate. […] Briefly, 20 μl of the activity testing system included the HDAC substrate (0.2 μM. 4 μl), the Human Recombinant Protein HDAC (2-5 ng)/μl.

[12] = tested on: SU-DHL-6; assay: Antiproliferative activity, CCK-8, SU-DHL-6; assay type: cell-based; conditions: SU-DHL-6, Diffuse large B-cell lymphoma; read-out: Cytotoxicity (IC50 μM)
Procedure: as §1, §2

[13] = molecular target: HDAC1 (Homo sapiens (Human), UniProt Q13547); assay: In vitro histone deacetylase activity assay (HTRF), HDAC1; assay type: biochemical; conditions: H3(1-21) K9Ac biotin substrate
Sequence of HDAC1 (Q13547 whole entry): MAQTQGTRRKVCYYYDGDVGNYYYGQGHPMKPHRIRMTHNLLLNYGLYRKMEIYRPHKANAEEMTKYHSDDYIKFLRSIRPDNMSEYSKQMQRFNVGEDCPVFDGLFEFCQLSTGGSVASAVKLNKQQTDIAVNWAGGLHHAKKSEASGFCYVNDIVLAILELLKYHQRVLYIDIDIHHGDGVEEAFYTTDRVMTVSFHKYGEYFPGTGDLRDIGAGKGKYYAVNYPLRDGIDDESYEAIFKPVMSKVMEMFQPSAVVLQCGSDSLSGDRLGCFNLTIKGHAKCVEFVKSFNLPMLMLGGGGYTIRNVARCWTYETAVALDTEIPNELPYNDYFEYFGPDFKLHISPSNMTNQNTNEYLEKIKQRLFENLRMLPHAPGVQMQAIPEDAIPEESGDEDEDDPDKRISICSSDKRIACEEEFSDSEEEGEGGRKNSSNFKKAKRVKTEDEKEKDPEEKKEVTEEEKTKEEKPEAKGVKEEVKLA
Procedure: as §3

[14] = tested on: human acute myeloid leukemia cells OCI-AML-3 transplanted tumor; assay: OCI-AML-3 NOD/SCID mice transplanted tumor model; assay type: in vivo; conditions: oral 60 mg/kg
[15] = tested on: U937; assay: Antiproliferative activity, CCK-8, U937; assay type: cell-based; conditions: U937, Human tissue cell lymphoma; read-out: Cytotoxicity (IC50 μM)
Procedure: as §1, §2

[16] = tested on: CCRF-CEM; assay: Antiproliferative activity, CCK-8, CCRF-CEM; assay type: cell-based; conditions: T-cell acute lymphoblastic leukemia, read-out: Cytotoxicity (IC50 μM)
Procedure: as §1, §2

[17] = molecular target: HDAC10 (Homo sapiens (Human), UniProt Q969S8); assay: HDAC subtype inhibitory activity (HTRF), HDAC10; assay type: biochemical
Sequence of HDAC10 (Q969S8 whole entry): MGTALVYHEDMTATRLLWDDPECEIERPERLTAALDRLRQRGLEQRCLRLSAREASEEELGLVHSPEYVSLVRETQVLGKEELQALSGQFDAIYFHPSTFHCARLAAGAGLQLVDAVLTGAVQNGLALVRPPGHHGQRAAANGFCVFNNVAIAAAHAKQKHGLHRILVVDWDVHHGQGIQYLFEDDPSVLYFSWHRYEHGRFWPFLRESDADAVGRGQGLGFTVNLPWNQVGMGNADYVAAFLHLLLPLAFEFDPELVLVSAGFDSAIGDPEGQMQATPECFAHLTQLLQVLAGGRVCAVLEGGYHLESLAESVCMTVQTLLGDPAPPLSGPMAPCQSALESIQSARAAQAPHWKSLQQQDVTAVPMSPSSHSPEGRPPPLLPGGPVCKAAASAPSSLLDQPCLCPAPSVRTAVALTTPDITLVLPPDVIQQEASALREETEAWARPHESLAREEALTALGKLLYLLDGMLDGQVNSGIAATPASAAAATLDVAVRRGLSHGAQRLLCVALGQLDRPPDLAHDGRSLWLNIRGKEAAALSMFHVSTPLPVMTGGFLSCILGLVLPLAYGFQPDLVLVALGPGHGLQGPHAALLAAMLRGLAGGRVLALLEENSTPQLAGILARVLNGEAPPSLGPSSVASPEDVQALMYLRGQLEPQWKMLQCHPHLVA
Procedure: as §3

[18] = tested on: Mino; assay: Antiproliferative activity, CCK-8, Mino; assay type: cell-based; conditions: Mantle cell lymphoma, read-out: Cytotoxicity (IC50 μM)
Procedure: as §1, §2

[19] = tested on: NCI-H929; assay: Antiproliferative activity, CCK-8, NCI-H929; assay type: cell-based; conditions: NCI-H929, Human multiple myeloma; read-out: Cytotoxicity (IC50 μM)
Procedure: as §1, §2

[20] = molecular target: HDAC2 (Homo sapiens (Human), UniProt Q92769); assay: HDAC subtype inhibitory activity (HTRF), HDAC2; assay type: biochemical
Sequence of HDAC2 (Q92769 whole entry): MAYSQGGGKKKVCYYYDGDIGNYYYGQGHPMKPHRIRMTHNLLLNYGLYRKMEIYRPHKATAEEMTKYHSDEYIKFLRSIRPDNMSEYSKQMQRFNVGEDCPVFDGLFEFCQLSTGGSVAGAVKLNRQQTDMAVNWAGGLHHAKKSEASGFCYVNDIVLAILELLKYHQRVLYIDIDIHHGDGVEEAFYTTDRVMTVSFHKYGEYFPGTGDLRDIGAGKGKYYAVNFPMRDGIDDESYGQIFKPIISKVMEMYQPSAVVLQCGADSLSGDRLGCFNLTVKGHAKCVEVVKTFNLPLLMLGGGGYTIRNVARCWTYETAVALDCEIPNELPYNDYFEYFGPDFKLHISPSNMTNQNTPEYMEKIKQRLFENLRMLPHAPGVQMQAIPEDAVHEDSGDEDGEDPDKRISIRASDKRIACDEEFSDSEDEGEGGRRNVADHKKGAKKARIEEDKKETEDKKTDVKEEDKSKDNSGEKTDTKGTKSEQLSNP
Procedure: as §3

[21] = molecular target: HDAC8 (Homo sapiens (Human), UniProt Q9BY41); assay: HDAC subtype inhibitory activity (HTRF), HDAC8; assay type: biochemical
Sequence of HDAC8 (Q9BY41 whole entry): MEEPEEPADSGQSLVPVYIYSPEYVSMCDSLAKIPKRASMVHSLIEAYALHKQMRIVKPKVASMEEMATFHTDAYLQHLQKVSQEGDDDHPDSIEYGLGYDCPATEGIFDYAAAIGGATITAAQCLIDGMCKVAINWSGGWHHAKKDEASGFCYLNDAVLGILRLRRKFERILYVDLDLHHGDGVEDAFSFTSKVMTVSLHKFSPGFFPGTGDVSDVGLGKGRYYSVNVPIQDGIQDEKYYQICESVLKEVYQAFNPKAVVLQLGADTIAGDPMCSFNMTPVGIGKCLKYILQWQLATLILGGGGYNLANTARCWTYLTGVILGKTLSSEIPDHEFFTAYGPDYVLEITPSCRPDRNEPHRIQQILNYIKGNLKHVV
Procedure: as §3

[22] = tested on: SNU-5; assay: Antiproliferative activity, CCK-8, SNU-5; assay type: cell-based; conditions: SNU-5, Gastric cancer; read-out: Cytotoxicity (IC50 μM)
Procedure: as §1, §2

[23] = tested on: VMM5A; assay: Antiproliferative activity, CCK-8, VMM5A; assay type: cell-based; conditions: Melanoma, read-out: Cytotoxicity (IC50 μM)
Procedure: as §1, §2

[24] = tested on: OPM-2; assay: Antiproliferative activity, CCK-8, OPM-2; assay type: cell-based; conditions: OPM-2, Human multiple myeloid leukemia; read-out: Cytotoxicity (IC50 μM)
Procedure: as §1, §2

[25] = tested on: KARPAS-1106P; assay: Antiproliferative activity, CCK-8, KARPAS-1106P; assay type: cell-based; conditions: Primary mediastinal large B-cell lymphoma, read-out: Cytotoxicity (IC50 μM)
Procedure: as §1, §2

IC50 [8]: 220 ± 4 nM
IC50 [11]: > 10000 nM
IC50 [13]: 57.6 ± 4.42 nM
IC50 [17]: > 100000 nM
IC50 [20]: 90 ± 6 nM
IC50 [21]: > 100000 nM
Structure (SMILES): C[C@@H](c1ccc(C(=O)Nc2ccc(F)cc2N)cc1)n1nc(-c2ccc(CN(C)C)cc2)ccc1=O [Compound I-1]
IC50 [1]: 0.671 ± 0.01 µM
IC50 [2]: 0.121 ± 0.003 µM
IC50 [3]: 0.381 µM
IC50 [4]: 0.116 ± 0.006 µM
IC50 [5]: 0.594 ± 0.011 µM
IC50 [6]: 0.088 ± 0.002 µM
IC50 [7]: 0.632 ± 0.066 µM
IC50 [9]: 0.297 ± 0.042 µM
IC50 [10]: 0.95 ± 0.066 µM
IC50 [12]: 0.576 ± 0.066 µM
relative tumor proliferation rate (T/C) ([14]; OCI-AML-3 transplanted tumor, 14 days): 7.75%
body weight of mice ([14]; during the transplanted tumor experiment): remained basically unchanged
IC50 [15]: 0.435 ± 0.254 µM
IC50 [16]: 0.382 ± 0.067 µM
IC50 [18]: 0.142 ± 0.013 µM
IC50 [19]: 0.642 ± 0.025 µM
IC50 [22]: 0.314 ± 0.011 µM
IC50 [23]: 0.856 ± 0.018 µM
IC50 [24]: 0.436 ± 0.222 µM
IC50 [25]: 0.498 ± 0.009 µM
